d = 2'-deoxy (DNA)
Key:
hBSP promoter = experiment: hBSP promoter-luciferase reporter activity in transfected cells; format: cell-based, human; details: C4-2B cells; db cAMP 10^−6 to 10^−3 M, FSK 10^−8 to 10^−5 M; 16 h; concentration-dependent
From the text: Plasmid Construction. Genomic DNA was used in the PCR of the 0.8-kb hOC promoter inserting KpnI and XhoI sites, subsequently cloned into pGL3-Basic-luciferase reporter vector (Promega, Madison, Wis.) as described before (9). The deletion constructs, ΔA [374 bp upstream of AP1/VDRE (AV) element], ΔTst-1 (POU-factor Tst-1/Oct-6 binding site), ΔCRE (cAMP-responsive element) and ΔIRF-1 (interferon regulatory factor-i binding site) in hOC promoter/pGL3 were generated by recombinant PCR technique. The point mutation plasmids in CRE (from -643 to -636 in hOC promoter, 5′-[…]-3′) were constructed with a QuikChange Site-Directed Mutagenesis Kit (Stratagene). […]
Transfection and Luciferase Activity Assay. […] For luciferase activity assay, 20 μl of the lysate supernatant was mixed with 100 μl of the luciferase substrate (Promega) and detected by a luminometer (Monolight 3010, luminometer PharMingen, San Diego, Calif.). For β-galactosidase activity assay, 100 μl of the supernatant was mixed with 100 μl of 2×β-galactosidase substrate [200 mM sodium phosphate buffer, pH 7.3, 2 mM MgCl2, 100 mM β-mercaptoethanol and 1.33 mg/ml o-nitrophenyl-β-D-galactopyranoside (ONPG)], and incubated at 37° C. for 30 min. β-galactosidase activity was detected by Microplate spectrophotometer (Molecular Devices Corp., Sunnyvale, Calif.) at 405 nm wavelength. […]

hOC promoter = experiment: hOC promoter-luciferase reporter activity in transfected cells; format: cell-based, human; details: C4-2B cells, 16 h
From the text: Plasmid Construction. Genomic DNA was used in the PCR of the 0.8-kb hOC promoter inserting KpnI and XhoI sites, subsequently cloned into pGL3-Basic-luciferase reporter vector (Promega, Madison, Wis.) as described before (9). The deletion constructs, ΔA [374 bp upstream of AP1/VDRE (AV) element], ΔTst-1 (POU-factor Tst-1/Oct-6 binding site), ΔCRE (cAMP-responsive element) and ΔIRF-1 (interferon regulatory factor-i binding site) in hOC promoter/pGL3 were generated by recombinant PCR technique. The point mutation plasmids in CRE (from -643 to -636 in hOC promoter, 5′-[…]-3′) were constructed with a QuikChange Site-Directed Mutagenesis Kit (Stratagene). The mutation constructs (see below) are one-point substitution mutants, Mut1 (-642 G→T), Mut2 (-641 A→C), Mut3 (-640 C→A), Mut4 (-639 C→A) and Mut5 (-638 T→G), a two-point substitution mutant, Mut6 (-640 and -639 CC→AA), and a two-point deletion construct, Mut7 (-640 and -639 CC→XX). The 1.5-kb hBSP promoter construct prepared in the pGL3-luciferase reporter vector has been described previously (36). The single deletion constructs ΔCRE1 (-79 to -72) and ΔCRE2 (-674 to -667), and a double deletion construct ΔCRE2/CRE1 in the hBSP promoter/pGL3-luciferase plasmid were generated by recombinant PCR technique. All plasmid constructs were confirmed by DNA sequencing.
Transfection and Luciferase Activity Assay. Cells were trypsinized and seeded at a density of 1.5×10^5 cells/well (LNCaP, C4-2B, DU145 and ARCaP) and 1.0×10^5 cells/well (PC3 and MG63) in 12-well plates 24 h before transfection. Plasmid DNAs were introduced into cells by complexing with a commercial reagent DOTAP (Roche Molecular Biochemicals) according to the manufacturer's protocol. Each transfection reaction contained 1.25 μg of tested DNA constructs and 0.25 μg of the transfection efficiency control CMV promoter-driven β-galactosidase plasmid DNA. After 6 h transfection, DNA-liposome mixtures were replaced by fresh T-medium or CM. Tansfected cells were harvested and lysed in 1× Reporter Lysis buffer (Promega) after 36 h additional incubation. Cell lysates were vortexed for 15 s and spun for 10 min. For luciferase activity assay, 20 μl of the lysate supernatant was mixed with 100 μl of the luciferase substrate (Promega) and detected by a luminometer (Monolight 3010, luminometer PharMingen, San Diego, Calif.). For β-galactosidase activity assay, 100 μl of the supernatant was mixed with 100 μl of 2×β-galactosidase substrate [200 mM sodium phosphate buffer, pH 7.3, 2 mM MgCl2, 100 mM β-mercaptoethanol and 1.33 mg/ml o-nitrophenyl-β-D-galactopyranoside (ONPG)], and incubated at 37° C. for 30 min. β-galactosidase activity was detected by Microplate spectrophotometer (Molecular Devices Corp., Sunnyvale, Calif.) at 405 nm wavelength. Data were presented as normalized luciferase activity (means±standard deviations), defined as luciferase activity normalized to internal control β-galactosidase activity for transfection efficiency. All studies were performed in three independent experiments with duplicate assays.

AR = experiment: Western blot of AR in siRNA-infected C4-2B cells; format: cell-based, human; details: retrovirally infected C4-2B cells
Description: (§1) FIG. 14. Western blot analysis of parental C4-2B (P), b2M-siRNA (siRNA) and scramble-siRNA (Scramble) retrovirally infected cells. Note AR and PSA expression were abolished by b2M-siRNA in C4-2B cells. EFIa was used as loading control.
(§2) Western blotting was performed using the NOVEX system (Invitrogen). […] Detection of protein bands was performed with ECL Western Boltting Detection Reagents (Amersham Biosciences Corp.).

PSA = experiment: Western blot of PSA in siRNA-infected C4-2B cells; format: cell-based, human; details: retrovirally infected C4-2B cells
Description: as §1, §2

[1] = test system: human prostate cancer cell lines; experiment: In vitro cell proliferation assay, prostate cancer cells; format: cell-based; details: for cell proliferation: Neo and b2M-overexpressed C4-2B clones, siRNA
Description: LNCaP, C4-2B, DU145, PC3, MG63 and ARCaP cell lines were seeded in 96-well plates in T-medium containing 5% FBS, respectively. After 24 h incubation, media were replaced by fresh, serum-free T-medium and incubated for an additional 24 h. […] Cell numbers were measured every 24 h using CellTiter 96® AQueous One Solution Cell Proliferation Assay (Promega, Madison, Wis.).

C4-2-Luc tumor = experiment: Subcutaneous bone powder C4-2-Luc tumors, intratumoral siRNA-liposome, serum PSA; format: in vivo, athymic nu/nu mice; details: intratumoral 0.8 μg siRNA three-time per week, four weeks, 28 days
From the text: (§3) The β2M- and control scramble-siRNA sequences were 5′-[…](dT)(dT)-3′ and 5′-[…](dT)(dT)-3′, respectively. For RNA delivery system, we used cationic liposome formulation, termed SN {Zou, 2002#68} to deliver β2M- and scramble-siRNA into cell lines or mice. The ratio of siRNA (μg) to SN (μl) was 1:24. To test prostate tumor growth inhibition by β2M-siRNA, four weeks old male athymic nu/nu mice were inoculated into the subcutaneous space of the chest regions with 2×10^6 cells of PC3-Luc or C4-2 mixed with 20 mg of bone powder (kindly provided by Dr. A. H. Reddi, University of California, Davis, Sacramento, Calif.) and 35 μl of Matrigel matrix (BD Bioscience, Bedford Mass.), respectively. Three (PC3-Luc) or four (C4-2) weeks later, the tumor-bearing mice were randomly divided into two groups. The mice in the treatment group received intratumoral injection of SN-β2M-siRNA for three-time per week continuously four weeks, at a dose of 0.8 μg of siRNA mixed with 19.2 μl of SN for each mouse. The control group injected with the same dose of SN-scramble-siRNA. To assay of anti-tumor activity of β2M-siRNA therapeutic efficacy, the real-time bioluminescence image by the CCD camera cryogenically cooled IVIS system with analysis software (Xenogen Corp., Alameda Calif.) (Ref) and serum PSA levels were used to monitored PC3-Luc and C4-2 tumor burden in nude mice.

b2M = b2M expression in C4-2B clones after siRNA; format: cell-based, human; details: Neo and b2M-overexpressed C4-2B clones
Description: Total RNA was isolated from the confluent monolayer of cells using RNAZol B (Teltest Inc., Friendswood, Tex.). The total RNA was used as template for RT according to the manufacturer's instruction (Invitrogen). […] RT-PCR products were analyzed by 1.2% agarose gel electrophoresis.
as §2
The β2M- and control scramble-siRNA sequences were 5′-[…](dT)(dT)-3′ and 5′-[…](dT)(dT)-3′, respectively. For RNA delivery system, we used cationic liposome formulation, termed SN {Zou, 2002#68} to deliver β2M- and scramble-siRNA into cell lines or mice. The ratio of siRNA (μg) to SN (μl) was 1:24. […] To assay of anti-tumor activity of β2M-siRNA therapeutic efficacy, the real-time bioluminescence image by the CCD camera cryogenically cooled IVIS system with analysis software (Xenogen Corp., Alameda Calif.) (Ref) and serum PSA levels were used to monitored PC3-Luc and C4-2 tumor burden in nude mice.

PC3-Luc tumor = experiment: Subcutaneous bone powder PC3-Luc tumors, intratumoral siRNA-liposome, bioluminescence imaging; format: in vivo, athymic nu/nu mice; details: intratumoral 0.8 μg siRNA three-time per week, four weeks, 28 days
From the text: as §3

C4-2B cells = experiment: Adhesion assay on ECM-coated 96-well plates; format: cell-based, human; details: β2M siRNA vs scramble siRNA
From the text: FIG. 13. Adhesion assay of b2M-siRNA and scramble-siRNA infected C4-2B cells using 96-well plate pre-coated with Col I, LM, FN and Col IV. BSA was used as control (Con). *, p<0.05, **, p<0.005.
Cell attachment to BSA coated wells served as an internal control (Con).

OC mRNA = experiment: Semi-quantitative RT-PCR of endogenous OC mRNA; format: cell-based, human; details: FSK 10^−6 M, 12 h
Description: (§4) Reverse Transcription-Polymerase Chain Reaction (RT-PCR) Analysis. Total RNA was isolated from confluent monolayers of cells using RNAZol B (Teltest Inc., Friendswood, Tex.). Five μg of total RNA was used as template and 0.15 μg of random hexanucleotide primers were added for reverse transcription and amplification in a reaction volume of 20 μl, according to the manufacturer's instruction (Invitrogen, Carlsbad, Calif.). After RT reaction, 3-5 μl of the 1st-strand cDNA was used for PCR with a PTC-100 programmable Thermal Controller (MJ Research Inc.). The oligonucleotide primer sets used for PCR analysis of cDNA are: hOC, 5′-[…]-3′ (forward) and 5′-[…]-3′ (reverse); hBSP, 5′-[…]-3′ (forward) and 5′-[…]-3′ (reverse); and glyceraldehyde phosphate dehydrogenase (GAPDH), 5′-[…]-3′ (forward) and 5′-[…]-3′ (reverse), respectively. The thermal profile for hOC amplification is 30 cycles starting with denaturation 1 min at 94° C., followed by 1 min of annealing at 55° C. and 1 min of extension at 72° C. For hBSP amplification the thermal profile is 35 cycles starting with denaturation 1 min at 94° C., followed by 30 s of annealing at 48° C. and 40 s of extension at 72° C. The program for GAPDH amplification is 25 cycles starting with denaturation 30 s at 94° C., followed by 30 s of annealing at 60° C. and 1 min of extension at 72° C. The RT-PCR products were analyzed by 1.2% agarose gel electrophoresis. Quantity one-4.1.1 Gel Doc gel documentation software (Bio-Rad) or NIH image were used for quantification of hOC and hBSP mRNA expression normalized by GAPDH mRNA expression.

BSP mRNA = experiment: Semi-quantitative RT-PCR of endogenous BSP mRNA; format: cell-based, human; details: FSK 10^−6 M, 12 h
Description: as §4

## CCCC(=O)Nc1ncnc2c1ncn2[C@@H]1O[C@@H]2COP(=O)(O)O[C@H]2[C@H]1OC(=O)CCC [db cAMP, dibutyryl 3′,5′-cyclic AMP]
hBSP promoter
  hBSP promoter activity, effect of PKA pathway activators: stimulated
hOC promoter; db cAMP 10^−6 to 10^−3 M, FSK 10^−8 to 10^−5 M, concentration-dependent
  hOC promoter activity, effect of PKA pathway activators: stimulated

## 5′-UUCAUGUGUCUGUGGUGUU(dT)(dT)-3′ (siRNA; RNA, 3' dTdT, backbone not given here; scramble control, delivered in cationic liposome formulation SN) [scramble-siRNA]
AR
  AR protein expression: not
PSA
  PSA protein expression: not
[1]
  cell proliferation: did not affect
C4-2-Luc tumor
  growth of pre-established C4-2-Luc tumors, serum PSA: not
b2M
  b2M expression: did not affect
PC3-Luc tumor
  growth of pre-established PC3-Luc tumors, Luc-imaging (BLI): not

## 5′-UUGCUAUGUGUCUGGGUUU(dT)(dT)-3′ (siRNA; RNA, 3' dTdT, backbone not given here; delivered in cationic liposome formulation SN) [b2M-siRNA]
AR
  AR protein expression: abolished
PSA
  PSA protein expression: abolished
[1]
  cell proliferation: inhibited
[1]; preliminary investigations
  growth of prostate cancer cells in vitro and tumor growth in bone on blocking β2M signaling: greatly attenuated
C4-2B cells
  cell attachment to collagen I (Col I): no significant difference
  cell attachment to collagen IV (Col IV): decreased attachment
  cell attachment to fibronectin (FN): no significant difference
  cell attachment to laminin (LM): no significant difference
b2M
  b2M expression: inhibited

## C=C[C@@]1(C)CC(=O)[C@]2(O)[C@@]3(C)[C@@H](O)CCC(C)(C)[C@@H]3[C@H](O)[C@H](OC(C)=O)[C@@]2(C)O1 [FSK, forskolin]
OC mRNA; C4-2B cells
  steady-state level of OC mRNA, fold elevation: 7.8 fold
OC mRNA; LNCaP cells
  steady-state level of OC mRNA, fold elevation: 5.2 fold
BSP mRNA; C4-2B cells
  level of BSP mRNA, fold increase: 5.4 fold
BSP mRNA; LNCaP cells
  level of BSP mRNA, fold increase: 3.2 fold

## CCCCCCCCCCCCCC(=O)O[C@@H]1[C@@H](C)[C@@]2(O)[C@@H](C=C(CO)C[C@]3(O)C(=O)C(C)=C[C@@H]23)[C@@H]2C(C)(C)[C@]12OC(C)=O [PMA, phorbol 12-myristate 13-acetate]
hOC promoter; PMA 10^−6 M
  hOC promoter activity, induction by PKC pathway activator: induced hOC promoter activity to a lesser extent
